Assay: gradient 5% acetonitrile 3 min, to 50% in 2 min, to 85% in 15 min, held 3 min, 100 µL/min
Details: column: Zorbax Extend-C18 2.1 x 50 mm; eluents: water / acetonitrile, 0.1% formic acid
Method in brief: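 Retention time was recorded from adduct peaks, which were picked computationally and each inspected manually. Pure standards ran in mixtures of ~100 molecules on HPLC coupled to a quadrupole time-of-flight mass spectrometer, in positive and negative ionization mode, through a Zorbax Extend-C18 column (2.1 × 50 mm, 1.8 μm) at 100 μL/min. Eluents were water and acetonitrile, each with 0.1% formic acid.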

RP-LC retention time	SMILES
839 s	COc1ccc(Br)cc1CNC(=O)C1CCN(C(=O)c2cc3ccsc3[nH]2)CC1
570 s	CN(C)CCNCc1ccc(-c2cccc(Cl)c2)o1
847 s	Cc1cc(NC(=O)C2CCN(C(=O)c3cnn(-c4ccccc4)n3)CC2)no1
718 s	O=C(CN1CCN(C(=O)Nc2ccc(Br)cc2)CC1=O)NCc1ccco1
650 s	CCc1cccc(NC(=O)N2CCC(n3cnnc3C)CC2)c1
850 s	CCC(=O)N1CCCc2cc(NC(=O)COc3ccc(F)cc3)ccc21
813 s	Fc1cccc(-c2nc(-c3ccc4nncn4c3)no2)c1
859 s	CC(c1ccccc1)n1cnc2c(oc3ccccc32)c1=O (stereo not drawn)
1080 s	Cc1ccc(N2C(=O)N(Cc3ccc(F)cc3)S(=O)(=O)c3cccnc32)cc1
698 s	O=C(Nc1cc(F)cc(F)c1)c1ccc(N2CCN(c3ccccn3)CC2)c([N+](=O)[O-])c1
757 s	O=C1C2CCCN2C(=O)c2ccccc2N1CCc1ccccc1 (stereo not drawn)
1190 s	O=C(Nc1cccc(Br)c1)N1CCc2nc(-c3ccc(Cl)cc3)ncc2C1
694 s	CCc1nc2c(c(=O)n1CC(=O)NCc1ccc(C)c(C)c1)CN(Cc1ccccc1)CC2
731 s	CCN1C(=O)C2(CCN(S(=O)(=O)c3c(C)noc3C)CC2)c2ccccc21
573 s	COc1ccc(NC(=O)Cn2ccnc2-c2ccnc(N3CCCC3)c2)cc1OC
702 s	COc1ccc(NC(=O)N2CCC3(C2)C(=O)Nc2ccccc23)cc1 (stereo not drawn)
693 s	CCCC(NC(=O)c1cccc(F)c1)C(=O)Nc1nc2ccccc2[nH]1 (stereo not drawn)
672 s	CNC(=O)c1cc[nH]c1C1CCCN(C(=O)C2CC=CCC2)C1 (stereo not drawn)
681 s	COc1ccc(Cn2nc3ccc(S(=O)(=O)N4CCCCCC4)cn3c2=O)cc1F
639 s	CC(=O)N1CCc2nn(CC(=O)N3CCc4ccccc43)c(=O)cc2C1
826 s	O=C(NC1CCN(c2ccccc2)C1=O)c1ccccc1C(F)(F)F (stereo not drawn)
755 s	CC(C)c1cccc(NC(=O)C2CCc3nc(N4CCOCC4)ncc3C2)c1 (stereo not drawn)

RP-LC retention time	SMILES
671 s	CN1CCC2(CC1)CN(C(=O)CCc1nc3ccccc3s1)Cc1ccccc1O2
624 s	CCCn1nnc2cc(-c3noc(CNC(=O)c4ccccc4)n3)ccc21
872 s	CCN1C(=O)c2cccnc2Sc2cc(NC(=O)COc3ccc(F)cc3)ccc21
706 s	COc1ccc(OC)c(NC(=O)NCCc2nc3cccnc3n2C2CCCC2)c1
950 s	CCc1cc(C(=O)N2CCCC2)nc2cc(-c3ccsc3)nn12
796 s	CC(C)c1cc(C2NNC(=O)N2c2ccc3c(ccn3C)c2)c(O)cc1O (stereo not drawn)
901 s	Cc1ccc(S(=O)(=O)N(C)c2ccccc2)s1
698 s	CCCCS(=O)(=O)N1CCCC(Cn2c(C3CC3)nc3cccnc32)C1 (stereo not drawn)
762 s	CCn1cnc(S(=O)(=O)N2CCC(C(=O)N3CCN(c4ccccc4F)CC3)CC2)c1
660 s	Cn1ccc2c(cc(C(=O)NCc3ccc4c(c3)OCO4)n2C)c1=O
672 s	CC(C)=C1SC(=O)N(CC(=O)Nc2ccc(S(N)(=O)=O)cc2)C1=O
874 s	CCc1ccc(N2C(=O)CN(S(C)(=O)=O)CC2(C)C(=O)NCc2ccc(Cl)cc2)cc1 (stereo not drawn)
626 s	CCc1nc(N)n(CC(=O)Nc2ccc(F)cc2C)c(=O)c1C
1020 s	COc1ccc(-c2cc3c(=O)n(Cc4ccc(C)cc4C)ccn3n2)cc1OC
1110 s	CCOC(=O)CC(=O)Nc1ccc(-c2nc(-c3cc(C)ccc3C)co2)cc1
751 s	CC(=O)c1ccc(OC(=O)c2ccc3c(c2)C(=O)N(c2ccccc2)C3=O)cc1
894 s	Cc1ccccc1NC(=O)CN1C(=O)CC(c2ccccc2)S(=O)(=O)c2ccccc21 (stereo not drawn)
939 s	COc1ccc(-c2ncc3c(n2)CCN(C(=O)Nc2ccccc2C(F)(F)F)C3)cc1
705 s	O=C(NCC1CCOCC1)Nc1ccc(Cl)cc1
860 s	CC1(C(=O)NC2CCCCC2)CN(S(C)(=O)=O)CC(=O)N1c1ccc(Cl)cc1 (stereo not drawn)
784 s	Cc1cc(C)cc(N2CCn3c2nc2c3c(=O)n(CC(=O)O)c(=O)n2C)c1
718 s	Cc1ccc2nc(C(=O)NCc3cccc(Cl)c3)cn2c1

RP-LC retention time	SMILES
773 s	O=C1NC2(CCN(C(=O)NCCc3ccccc3)CC2)Nc2c(Cl)cccc21
760 s	Cc1ccc(S(=O)(=O)Nc2ccc(Cn3cncn3)cc2)cc1Cl
922 s	Cc1cc(C)cc(N2CCC(NC(=O)Nc3cccc(C)c3C)C2=O)c1 (stereo not drawn)
1210 s	COc1ccc(N2CCN(c3nc4c(c(Nc5ccccc5)n3)C(=O)CCC4)CC2)cc1
989 s	Cc1ccc(-c2ccc(-n3nc(C)c(S(=O)(=O)N4CCCC4)c3C)nn2)cc1
825 s	O=C(Cc1c[nH]c2ccccc12)N1CCc2cc(-c3ccno3)ccc21
580 s	CCN1CCN(CC(=O)Nc2ccc(C(C)=O)cc2)C(=O)C1=O
942 s	Cc1cc(C)c(NC(=O)COc2cc(C)nc(N3CCN(c4ccccc4)CC3)n2)c(C)c1
1010 s	Cc1cccc(-c2noc(C3CCCN3C(=O)Nc3ccccc3C)n2)c1 (stereo not drawn)
1110 s	O=S(=O)(c1ccccc1)N1CCC(c2noc(-c3cccc(F)c3)n2)CC1
887 s	Cc1ccc(NC(=O)c2cnc3c(c2)c(=O)n(C)c(=O)n3-c2ccccc2)c(F)c1
899 s	O=S(=O)(CCc1noc(-c2ccc3c(c2)OCO3)n1)c1ccccc1
788 s	Cc1ccc(-c2noc(C3CCCN3S(=O)(=O)c3ccc(C(C)(C)C)cc3)n2)cc1 (stereo not drawn)
599 s	COc1ccc(C(C)NC(=O)c2cc(NC(C)=O)cc3nc(C)ccc23)cc1OC (stereo not drawn)
681 s	COc1ccc(CN(Cc2ccccc2)Cc2cc(=O)n3ccc(C)cc3n2)cc1
807 s	COc1cccc(C(=O)NC2CCN(c3cc(-c4ccc(Cl)cc4)[nH]n3)C2)c1OC (stereo not drawn)
578 s	Cc1noc(C)c1Cc1ccc(C(=O)NCc2nn(C)c3c2CN(C)CC3)o1
720 s	Cc1ccc(Cn2cc(-c3ccncc3)cc2C(=O)NCC(C)C)cc1
701 s	O=C(c1ccco1)N1CCN(c2ccc(=O)n(-c3ccccc3)n2)CC1
751 s	Cc1cc(N)c2cc(NC(=O)/C=C\c3ccccc3Cl)ccc2n1
1230 s	CCOc1ccc(C2Cn3nnc(-c4nc(-c5ccccc5Br)no4)c3CO2)cc1 (stereo not drawn)
684 s	COc1ccc(S(=O)(=O)N2CCCC(C(=O)NCC3CCCO3)C2)cc1OC (stereo not drawn)

RP-LC retention time	SMILES
821 s	CCOc1ccc(-c2[nH]nc3nc(-c4cccc(OC)c4)cc(C(=O)O)c23)cc1
1030 s	Cc1cc2nn(CC(=O)Nc3ccc(F)cc3Cl)c(=O)n2c(Nc2ccccc2)n1
602 s	CCN(CC)CCCNC(=O)Cn1c(=O)c2cccn2c2ccccc21
847 s	O=C(c1nnc(-c2ccc(S(=O)(=O)N3CCCC3)cc2)o1)N1CCCCC1
1210 s	COCCOC(=O)C1=C(C)NC(C)=C(C(=O)OC/C=C/c2ccccc2)C1c1cccc([N+](=O)[O-])c1 (stereo not drawn)
729 s	COc1ccc(CCC(=O)N2CCC3(C2)C(=O)Nc2ccccc23)cc1 (stereo not drawn)
749 s	COCC(=O)N(C1CCOCC1)C1CCN(S(=O)(=O)c2ccc(F)cc2)CC1
607 s	Cc1cc(C)n(-c2ccnc(N3CCC(C(=O)NCCN4CCOCC4)CC3)n2)n1
906 s	CCc1ccc(NS(=O)(=O)c2cc3c4c(c2)CCC(=O)N4CCC3)cc1
921 s	CCCn1cc(C2=CCN(S(=O)(=O)c3ccc(OC)c(Cl)c3)CC2)c2cccnc21
840 s	O=S(=O)(c1cccc(-c2nc(-c3ccccc3)no2)c1)N1CCN(C2CCCCC2)CC1
1280 s	CCOC(=O)c1cnc2c(-c3ccc(Cl)cc3)c(CC)nn2c1N
883 s	O=C(Nc1cccc(F)c1)N1CCC(CCNC(=O)C2(c3ccccc3)CC2)CC1
664 s	CCc1nnc(NC(=O)CSc2nc3c(c(=O)n2CCOC)SC(C)C3)s1 (stereo not drawn)
912 s	CCN(C(=O)C1CCCN(c2ncnc3c2nc2n3CCCCC2)C1)c1cccc(Cl)c1 (stereo not drawn)
980 s	O=C(NC1CCCCCCC1)C1CCCN(S(=O)(=O)c2c[nH]c(C(=O)N3CCCCCC3)c2)C1 (stereo not drawn)
625 s	CC(C)CCNC(=O)N1C[C@@H]2CCCN3CCC[C@@H]([C@H]23)[C@H]1CCCC(=O)NCC1CC1
908 s	O=C(Nc1cccc(F)c1)C1CCCN(c2ccc3cc(S(=O)(=O)N4CCCCC4)ccc3n2)C1 (stereo not drawn)
1230 s	Cc1ccc(C2Cn3nnc(-c4nc(-c5ccccc5F)no4)c3CO2)c(C)c1 (stereo not drawn)
670 s	Cc1ccc(C(=O)NCC2CN(C(C)C)CC23CCCCC3)s1 (stereo not drawn)
601 s	Cc1c(-c2ccnc(N3CCN(C)CC3)n2)cnc2nc(-c3cccs3)nn12

SMILES	RP-LC retention time
CCN(CC)CCOC(=O)C(O)(c1ccccc1)c1ccccc1	714 s

Source: the METLIN SMRT retention time set (Domingo-Almenara et al. 2019)
